Read-outs that look alike come from different tables or passages of the source.
Assays:
[1] = test system: polymicrobial biofilms containing MRPA and MRSA; assay: Example I: photodynamic disinfection of polymicrobial biofilm discs; assay type: cell-based
Description: (§1) An in vitro study was conducted on polymicrobial biofilms containing MRPA and MRSA using the following compositions: (i) compositions each comprising EDTA at one of the following concentrations: 0.5 mM (0.014612% w/v), 0.75 mM, 1.0 mM and 1.25 mM; (ii) composition comprising of methylene blue at a concentration of 0.05% w/v; (iii) compositions each comprising methylene blue at a concentration of 0.05% w/v and EDTA at one of the following concentrations: 0.5 mM, 0.75 mM, 1.0 mM and 1.25 mM. Clinical isolates of MRPA and MRSA were used in this study. Overnight tryptic soy broth (Remel, Lenexa, Kans.) cultures were centrifuged for 15 minutes at 5,000 RPM. The supernatants were removed and the cells washed and resuspended in 1× phosphate buffered saline (PBS) by alternate rounds of centrifugation for 2 minutes at 12.1×g and resuspension. Resulting bacterial suspensions were diluted with PBS to obtain approximately 1.5×10^5 cells/mL of each bacterium measured using a CrystalSpec nephlometer (BD Diagnostic Systems, Sparks, Md.). The suspensions were then combined. […]
(§2) Thereafter, all of the biofilm discs were each placed in a sterile 50 mL centrifuge tube with 1 mL of PBS, vortexed vigorously for one minute. […] The colonies were counted by a Protos automated counter (Synoptics, Frederick, Md.) to determine the total number of viable bacteria and expressed as colony forming units (CFU). […]

planktonic MRPA and MRSA = assay: Example IV: planktonic MRPA and MRSA study; assay type: cell-based; conditions: for planktonic MRPA and MRSA reduction compared to the control: methylene blue 0.005% w/v, no EDTA
Description: An in vitro study was conducted on planktonic MRPA and MRSA using the following compositions. (i) compositions each comprising EDTA at One of the following concentrations: 0.005 mM, 0.01 mM, 0.025 mM, 0:05 mM (0.0014612% w/v), 0.075 mM (0.0021918% w/v), 0.1 mM, 0.175 mM, 0.25 mM and 0.4 mM (0.0116896% w/v); (ii) composition comprising of methylene blue at a concentration of 0.005% w/v; and (iii) compositions each comprising of methylene blue at a concentration of 0.005% w/v with EDTA at one of the following concentrations: 0.005 mM, 0.01 mM, 0:025 mM, 0.05 mM, 0.075 mM, 0.1 mM 0.175 mM, 0.25 mM and 0.4 mM. The planktonic MRPA and MRSA samples were prepared in the same fashion as described in Example 1 in order to obtain approximately 1.5×10^8 cells/mL of MRPA and approximately 1.5×10^8 cells/mL of MRSA which were then combined.
Each of the compositions discussed above was prepared and then mixed with the combined bacterial solution of MRPA and MRSA and incubated for 30 seconds (“treated samples”). Thereafter, test tubes were prepared each containing 50 μl of one of the treated samples. Some of these test tubes were kept in dark incubation for 400 seconds while the remaining test tubes were exposed to 664 nm light using a non-laser light at a power density of 100 mW/cm^2 and a light energy dose of 10 J/cm^2.
Thereafter, a cotton-tipped swab (Puritan, Guilford, Me.) was dipped into the suspension contained within each test tube, placed in 1 mL of PBS With the stick broken off, and then vortexed for 3-5 seconds (“test samples”). […] The colonies were counted by a Protos automated counter (Synoptics, Frederick, Md.) to determine the number of viable bacteria and expressed as colony forming units (CFU). […] Counts for all experimental and control conditions were averaged and expressed as CFU/ml.
The planktonic MRPA and MRSA reduction rate was calculated as surviving CFU/ml in experimental conditions vs. the control (i.e., test samples that received no treatment) expressed as a log10 reduction from control and shown in FIGS. 6-7.

[2] = test system: polymicrobial biofilms containing MRPA and MRSA; assay: Example II: repeat polymicrobial biofilm study, protocol of Example I; assay type: cell-based; conditions: FIG. 2; methylene blue 0.05% w/v, no EDTA
Description: as §1, §2

[3] = test system: Pseudomonas aeruginosa ATCC # 9027 in polymicrobial biofilms; assay: Example III: polymicrobial biofilm study, Pseudomonas aeruginosa count; assay type: cell-based; conditions: no EDTA, 669 nm, 72 J/cm^2
Description: An in vitro study was conducted on polymicrobial biofilms containing MRSA and Pseudomonas aeruginosa. Stock cultures of MRSA ATCC # 33592 and Pseudomonas aeruginosa ATCC # 9027 were grown aerobically overnight on tryptic soy agar, harvested individually, and suspended in PBS solution with MRSA at a concentration of ˜2×10^8 CFU/ml and Pseudomonas aeruginosa at a concentration of ˜3×10^6 CFU/ml. Cell densities were measured as a function of absorbance at 420 nm using a Genesys 10 spectrophotometer (Thermo Scientific, Pittsburgh, Pa.). Pseudomonas aeruginosa inocula were then serial diluted in PBS to a concentration of ˜3×10^4 CFU/ml. The two suspended inocula (MRSA and Pseudomonas aeruginosa) were mixed at a ratio of 1:1 and then further diluted 1:40 into tryptic soy broth to achieve the biofilm inoculum of having a MRSA final concentration of ˜2.5×10^6 CFU/ml and Pseudomonas aeruginosa at a final concentration of ˜3.75×10^3 CFU/ml
The biofilm inoculum, prepared as described above, was then pipetted onto 8 mm diameter sterile silicone discs placed inside a 24-well culture plate with 600 μl of the biofilm inoculum per well. The plates were then allowed to shake for 24 hours at 125 rotations per minute using an Innova 200 platform gyrorotary shaker (New Brunswick Scientific Co, Edison N.J.) at 35° C. After 24 hours, all residual liquid from each well was removed and 600 μl of sterile tryptic soy broth was added to each well. […]
Immediately following illumination, the glass cover slip was removed carefully using sterile forceps and biofilm disc surfaces were swabbed using a calcium alginate swab following a reproducible “X” pattern. […] Colony counts were counted separately for each bacterial species (i.e., MRSA and Pseudomonas aeruginosa) providing differentiation of reduction for each of the bacterial species. Counts for all experimental and control conditions were averaged and expressed as CFU/ml. The bacteria reduction rate was calculated as surviving CFU/ml in experimental conditions vs. the control expressed as a log10 reduction from the control. […]

[4] = cited from earlier work

SMILES	biofilm bacterial count reduction ([1]; EDTA alone at 0.5 mM, 0.75 mM, 1.0 mM and 1.25 mM)	bacterial count reduction (planktonic MRPA and MRSA; EDTA alone at 0.005 mM to 0.4 mM, without light (dark incubation for 400 seconds))	bacterial reduction compared to the control ([1]; FIG. 1, methylene blue 0.05% w/v, no EDTA, 664 nm, 45 J/cm^2) [log10]	bacterial reduction compared to the control [2] [log10]	Pseudomonas aeruginosa reduction compared to the control ([3]; FIG. 3, methylene blue 0.01% w/v) [log10]	Pseudomonas aeruginosa reduction compared to the control ([3]; FIG. 4, methylene blue 0.03% w/v) [log10]	Pseudomonas aeruginosa reduction compared to the control ([3]; FIG. 5, methylene blue 0.05% w/v) [log10]	planktonic MRPA and MRSA reduction compared to the control (planktonic MRPA and MRSA; FIG. 6, without any light (dark incubation 400 seconds)) [log10]	planktonic MRPA and MRSA reduction compared to the control (planktonic MRPA and MRSA; FIG. 7, with light treatment (664 nm, 10 J/cm^2)) [log10]	yield of the singlet oxygen generation ([4]; pH 5)	yield of the singlet oxygen generation ([4]; pH 9)
O=C(O)CN(CCN(CC(=O)O)CC(=O)O)CC(=O)O [EDTA, ethylenediaminetetraacetic acid]	did not result in any statistically significant biofilm bacterial count reduction	did not result in any statistically significant bacterial count reduction	–	–	–	–	–	–	–	–	–
CN(C)c1ccc2nc3ccc(=[N+](C)C)cc-3sc2c1 [methylene blue]	–	–	2.5	3.4	2.9	2.9	2.6	2.4	3.5	0.2	0.94

From patent US20120029418A1, “COMPOSITION AND METHOD FOR PHOTODYNAMIC DISINFECTION” (Advanced Photodynamic Technologies, Inc., priority 2010, published 2012)
